Reference: PMC11249626, “Fluorophore-Labeled Pyrrolones Targeting the Intracellular Allosteric Binding Site of the Chemokine Receptor CCR1” (ACS Pharmacology & Translational Science, 2024)
Read-outs that look alike come from different tables or passages of the source.

What was measured:
CCR1 [1] = target: T1, CCR1 (Homo sapiens, UniProt P32246); set-up: Promega pNLF1-C (Nluc) #CCR010TN00; host or cells: HEK293T, transient (PEI); method as in PMID 35838163; details: cited from earlier work
T1 sequence (P32246 1-355): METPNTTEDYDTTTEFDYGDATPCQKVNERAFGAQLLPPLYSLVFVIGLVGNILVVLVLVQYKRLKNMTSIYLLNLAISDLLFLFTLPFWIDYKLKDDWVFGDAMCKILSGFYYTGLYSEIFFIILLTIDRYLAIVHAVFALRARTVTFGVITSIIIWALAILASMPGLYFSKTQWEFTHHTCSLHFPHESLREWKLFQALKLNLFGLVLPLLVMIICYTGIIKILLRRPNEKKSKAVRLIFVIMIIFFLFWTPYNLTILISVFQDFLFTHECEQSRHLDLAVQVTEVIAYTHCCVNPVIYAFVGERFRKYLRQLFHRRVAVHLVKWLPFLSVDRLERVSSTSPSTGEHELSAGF

CCR2 [2] = target: T2, CCR2 (Homo sapiens, UniProt P41597); set-up: method as in PMID 35838163; details: membrane-based setup; cited from earlier work
T2 construct: host or cells: HEK293T, transient
T2 sequence (P41597 1-360 isoform P41597-2): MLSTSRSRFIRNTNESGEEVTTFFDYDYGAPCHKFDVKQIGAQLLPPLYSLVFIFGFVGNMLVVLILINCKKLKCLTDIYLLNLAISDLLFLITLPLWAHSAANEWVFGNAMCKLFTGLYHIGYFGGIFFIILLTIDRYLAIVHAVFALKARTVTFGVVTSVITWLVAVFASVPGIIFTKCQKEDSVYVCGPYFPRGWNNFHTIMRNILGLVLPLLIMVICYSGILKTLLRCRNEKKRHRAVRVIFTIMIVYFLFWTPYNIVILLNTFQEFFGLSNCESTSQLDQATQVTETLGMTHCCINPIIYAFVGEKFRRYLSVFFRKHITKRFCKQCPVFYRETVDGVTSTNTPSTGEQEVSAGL

CCR2 [3] = target: T2, CCR2; set-up: method as in PMID 35838163; details: cellular setup; cited from earlier work
CCR1 [4] = target: T1, CCR1; experiment: Membrane-based NanoBRET competition assay with 12 (2000 nM) and CCR1_Nluc membranes; type: binding; set-up: Promega pNLF1-C (Nluc) #CCR010TN00; host or cells: HEK293T, transient (PEI); details: 12 (2000 nM)
CCR2 [5] = target: T2, CCR2; experiment: NanoBRET competition binding assay for CCR2 based on 7, as previously reported; details: compound at 100 μM; read-out: % inh. of tracer binding, CCR2
From the text: With 6 (Figure 1), a first lead structure for intracellular CCR1 inhibition that features an approximately 20-fold CCR1 over CCR2 selectivity was previously discovered by Ortiz Zacarías et al.([33]) In order to discover new chemotypes for selective CCR1 over CCR2 inhibition, we aimed to apply our novel NanoBRET competition binding assay for CCR1 in combination with our recently published CCR2 competition binding assay based on 7.[47] In our first attempt, we screened a small in-house library enriched with intracellular GPCR ligands and structural analogues thereof. […] Additionally, we tested 23 for binding to the IABS of CCR9 and CXCR2 using our recently reported NanoBRET-based assay platform (Figure 6C).[44],[45] In the course of these studies, we detected no binding of 23 to CCR9 and CXCR2 up to a concentration of 20 μM. Since cell lineage-dependent effects have been observed for CCR1 antagonists,[59] we studied the CCR1 over CCR2 selectivity of 23 by using a previously reported radioligand binding assay with membrane preparations from osteosarcoma (U2OS) cells stably expressing human CCR1 or CCR2.[33] […] In agreement with these previous reports,[33] we observed a reduction in CCR1 over CCR2 selectivity when moving from membrane-based binding assays to cell-based functional assays. […] To investigate a potential signaling bias of 23, we tested the compound by means of a NanoBiT miniGi recruitment assay.[60] […] Thus, this indicated no strong signaling bias of 23 (Figures S9E and S10C). To elucidate the SAR of this new scaffold for selective CCR1 over CCR2 inhibition, we synthesized several analogues of 23 (24–40) and tested them by means of our NanoBRET competition binding assays (Schemes S2 and S3, Table 1, Figures 6F and S11). First, we aimed to examine the impact of the stereochemistry of 23 on CCR1 affinity. As for the structurally related pyrrolone 4, large differences in CCR2 affinity between the eutomer 4-[R] and the distomer 4-[S] were described.[61] […] Furthermore, we identified the 4-hydroxyphenethyl group at position 1 of the pyrrolone scaffold as highly important for CCR1 affinity and selectivity. Its presence seems to block CCR2 binding, also when combined with the structural features of the high-affinity CCR2 ligand 5, as exemplified by 24. Especially the 4-hydroxy group at this moiety is essential for CCR1 binding (see 25 and 26). […] In position 5 of the pyrrolone, several aromatic and aliphatic substituents were tolerated (see 31–35).

CXCR2 = target: T3, CXCR2 (Homo sapiens, UniProt P25025); experiment: NanoBRET-based assay for binding to the IABS of CXCR2, as previously reported; details: compound at 20 μM; read-out: % inh. of tracer binding, CXCR2
T3 construct: host or cells: HEK293T, transient
T3 sequence (P25025 1-360): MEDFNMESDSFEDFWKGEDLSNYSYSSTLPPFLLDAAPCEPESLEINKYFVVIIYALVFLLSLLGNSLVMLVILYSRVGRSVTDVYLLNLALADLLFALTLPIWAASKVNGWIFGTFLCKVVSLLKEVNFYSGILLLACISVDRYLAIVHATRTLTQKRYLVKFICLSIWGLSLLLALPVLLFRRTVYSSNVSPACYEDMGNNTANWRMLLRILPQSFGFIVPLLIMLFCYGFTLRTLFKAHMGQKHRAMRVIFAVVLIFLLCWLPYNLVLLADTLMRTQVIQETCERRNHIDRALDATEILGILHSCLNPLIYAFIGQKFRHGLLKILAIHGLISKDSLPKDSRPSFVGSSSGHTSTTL
From the text: (§1) With 6 (Figure 1), a first lead structure for intracellular CCR1 inhibition that features an approximately 20-fold CCR1 over CCR2 selectivity was previously discovered by Ortiz Zacarías et al.([33]) In order to discover new chemotypes for selective CCR1 over CCR2 inhibition, we aimed to apply our novel NanoBRET competition binding assay for CCR1 in combination with our recently published CCR2 competition binding assay based on 7.[47] In our first attempt, we screened a small in-house library enriched with intracellular GPCR ligands and structural analogues thereof. […] Additionally, we tested 23 for binding to the IABS of CCR9 and CXCR2 using our recently reported NanoBRET-based assay platform (Figure 6C).[44],[45] In the course of these studies, we detected no binding of 23 to CCR9 and CXCR2 up to a concentration of 20 μM. Since cell lineage-dependent effects have been observed for CCR1 antagonists,[59] we studied the CCR1 over CCR2 selectivity of 23 by using a previously reported radioligand binding assay with membrane preparations from osteosarcoma (U2OS) cells stably expressing human CCR1 or CCR2.[33] […] In agreement with these previous reports,[33] we observed a reduction in CCR1 over CCR2 selectivity when moving from membrane-based binding assays to cell-based functional assays. […]

CCR9 = target: T4, CCR9 (Homo sapiens, UniProt P51686); experiment: NanoBRET-based assay for binding to the IABS of CCR9, as previously reported; details: compound at 20 μM; read-out: % inh. of tracer binding, CCR9
T4 construct: host or cells: HEK293T, transient
T4 sequence (P51686 1-369): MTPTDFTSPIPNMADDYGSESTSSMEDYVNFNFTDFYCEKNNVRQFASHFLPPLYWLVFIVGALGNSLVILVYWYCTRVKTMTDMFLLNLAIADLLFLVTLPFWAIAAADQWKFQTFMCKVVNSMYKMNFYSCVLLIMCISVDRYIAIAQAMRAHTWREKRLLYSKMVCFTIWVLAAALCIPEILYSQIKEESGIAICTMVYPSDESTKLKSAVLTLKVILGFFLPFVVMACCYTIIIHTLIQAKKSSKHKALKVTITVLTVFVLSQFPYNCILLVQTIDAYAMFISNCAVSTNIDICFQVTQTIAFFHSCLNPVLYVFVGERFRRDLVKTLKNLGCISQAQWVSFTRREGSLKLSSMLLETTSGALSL
From the text: as §1

CCR1 [6] = target: T1, CCR1; experiment: Live cell NanoBRET binding assay, HEK293T cells expressing CCR1_Nluc; set-up: Promega pNLF1-C (Nluc) #CCR010TN00; host or cells: HEK293T, transient (PEI); details: 12 (1000 nM), live HEK293T cells; read-out: Ki, live cells
CCR2 [7] = target: T2, CCR2; set-up: method as in PMID 30256641; details: cited from earlier work
CCR1 [8] = target: T1, CCR1; set-up: Promega pNLF1-C (Nluc) #CCR010TN00; host or cells: HEK293T, transient (PEI); method as in PMID 30256641; details: binding; cited from earlier work

## CN(C)c1ccc2c(-c3cc(C(=O)NCCOCCOCCn4cc(CNC(=O)c5ccc(Oc6ncc(Cl)cc6NS(=O)(=O)c6ccc(Cl)c(C(F)(F)F)c6)cc5)nn4)ccc3C(=O)[O-])c3ccc(=[N+](C)C)cc-3oc2c1 [compound 7]
CCR1 [1]
  KD(CCR1) / binding to CCR1: no relevant binding
CCR2 [2]
  Kd: 266 nM
CCR2 [3]
  Kd: 114 nM

## NC(=O)CSc1nnc(-c2ccc(Cl)cc2)n1C1CCCCC1 [compound 43]
CCR1 [4]; CCR1_Nluc membranes, read-out: Ki, CCR1 (converted)
  Ki: 357 nM
CCR1 [4]; compound at 20 μM
  % inh. of tracer binding, CCR1: ≥ 50%
CCR2 [5]
  inhibition at 100 µM: 29%
CXCR2
  inhibition at 20 µM: 2%
CCR9
  inhibition at 20 µM: 15%
CCR1 [6]
  Ki: 1290 nM

## O=C(C1=C(O)C(=O)N(c2ccc(Br)cc2F)C1c1cccc(Br)c1)C1CC1 (centres unmarked) [compound 6]
CCR2 [7]
  CCR2, % @ 1 μM: 45%
CCR1 [8]
  CCR1 over CCR2 selectivity: approximately 20 fold
